Measurements published in patent US20250213627A1, “RECOMBINANT MICROORGANISM-BASED METHODS AND COMPOSITIONS FOR TREATMENT OF DISEASE” (Baylor College of Medicine, priority 2021, published 2025).
Entries after “also recorded” stand apart in the source; their conditions may differ.

Experiments:
[1] = tested on: collagen-induced arthritis (CIA) in Lewis rats; test: Collagen-induced arthritis (CIA) treatment trial; assay type: in vivo, rat
Protocol: Starting at onset of clinical signs, four groups of rats received ˜1×10^9 CFU of either LrGusA or LrS235, both after SppIP induction for 2.5 hr, by daily oral gavage, or P6N vehicle or synthetic ShK-235 by injection in the scruff of the neck every other day.
Induction, monitoring, randomization, and treatment of rat collagen-induced arthritis. CIA was induced as described previously (46, 50). Briefly, female Lewis rats received a subcutaneous injection of 200 μl of a 1:1 emulsion of 2 mg/ml porcine type II collagen (20031, Chondrex, Redmond, WA) with incomplete Freund's adjuvant at the base of the tail. After 7 days, rats were given a booster of 100 μl of collagen and adjuvant emulsion. Disease onset was defined as the development of at least one swollen or red paw joint. Clinical scores were determined daily by assigning 1 point for each swollen or red toe joint, 2 points for mildly swollen wrist or ankle joints, and 5 points for each severely swollen wrist or ankle, giving each rat a maximum possible score of 60. Upon disease onset, rats were treated every other day by the subcutaneous injection of P6N buffer vehicle or 0.1 mg/kg ShK-235, or the oral gavage of 1×10^9 cfus LrGusA or 1×10^9 cfus LrS235 daily. CIA is more severe in rats with early disease onset. To avoid biasing results based on disease severity on the day each rat developed signs of disease and accounting for differences in the time between immunization and when a rat developed signs of illness, every rat that developed signs of disease on a given day was placed in a different treatment group to fill all groups in parallel.
Histology and micro-CT. Healthy rats and rats from the CIA trials were euthanized after 21 days of treatment, and their hind paws were collected and fixed in 10% buffered formalin. One paw from each rat was imaged by Micro-CT using a Bruker SkyScan 1272 Scanner set at 13 μm resolution with no filtering, no averaging, and a rotation step of 0.3. Raw images were analyzed with CTvox (Bruker, MA, US). The other hind paw was decalcified, embedded in paraffin, and sectioned. Slides were stained with either hematoxylin and eosin or Safranin O/Fast green and imaged at 4× magnification on a Nikon Ci-L bright-field microscope (Nikon Inc. NY, US). Scoring of the slides was completed by an investigator blinded to treatment groups using a comprehensive histological scoring system as described elsewhere (46, 51), in which cartilage degradation, cartilage erosion, angiogenesis, pannus formation, synovial hyperplasia, and synovial inflammation were evaluated by the following criteria: 0=absent, 1=mild, 2=moderate, 3=severe. The data were presented as mean±standard deviation.

[2] = tested on: anti-ShK-235 IgG; test: Immunogenicity ELISA on sera of CIA rats; assay type: in vivo, rat; conditions: sera at end of 21-day CIA trial
Protocol: To test if ShK-235 produced by LrS235 is immunogenic, the sera of rats were assessed at the end of the 21-day CIA trial shown in FIG. 8 for anti-ShK-235 IgG by ELISA assay. Plates coated with collagen II and HsTX1[R14A] were used as controls. HsTX1[R14A] is another peptide blocker of Kv1.3 with no sequence or structural homology to ShK-235.
Immunogenicity assays in rats with CIA. High-protein binding 96-well microplates (3855, ThermoFisher, MA, US) were coated overnight with 10 μg/ml of either porcine collagen II (20031, Chondrex, Woodinville, WI), ShK-235, or HsTX1[R14A], dissolved in PBS. Non-specific binding sites were blocked with PBS+5% skimmed milk and washed with PBS+0.05% Tween 20 before adding serum from the CIA rats, diluted in PBS. After washes, anti-rat IgG antibodies conjugated to horseradish peroxidase (1 μg/ml; Pierce catalog 31471, lot UA280036) were added to all the wells. One-step TMB-ELISA (34028, ThermoFisher, MA, US) was used to detect absorbance on a plate reader at 650 nm.

[3] = Thermal stability of peptide

Structure (SMILES): CC[C@H](C)[C@@H]1NC(=O)[C@H](CO)NC(=O)[C@H](Cc2c[nH]cn2)NC(=O)[C@H](CCCCN)NC(=O)[C@@H]2CSSC[C@@H]3NC(=O)[C@H]([C@@H](C)O)NC(=O)[C@H](CCCCN)NC(=O)[C@H](CCCNC(=N)N)NC(=O)[C@H](CSSC[C@H](NC(=O)[C@H](CCCNC(=N)N)NC(=O)[C@H](CO)NC(=O)[C@H](CCCCN)NC(=O)[C@@H]4CCCN4C(=O)[C@H]([C@@H](C)CC)NC(=O)[C@H]([C@@H](C)O)NC(=O)[C@H](CC(=O)O)NC(=O)[C@H]([C@@H](C)CC)NC(=O)[C@@H](NC(=O)[C@H](CO)NC(=O)[C@@H](N)CCCNC(=N)N)CSSC[C@@H](C(=O)N[C@@H](C)C(=O)O)NC(=O)[C@H]([C@@H](C)O)NC(=O)CNC3=O)C(=O)N[C@@H]([C@@H](C)O)C(=O)N[C@@H](C)C(=O)N[C@@H](Cc3ccccc3)C(=O)N[C@@H](CCCCN)C(=O)N2)NC(=O)[C@H](Cc2ccccc2)NC(=O)[C@H](CO)NC(=O)[C@H](CC(C)C)NC(=O)[C@H](CCCNC(=N)N)NC(=O)[C@H](Cc2ccc(O)cc2)NC(=O)[C@H](CCCCN)NC1=O [ShK-235]
- Mean clinical score of arthritis ([1]; 21 days from onset, bacteria ~1×10^9 CFU daily oral gavage, synthetic ShK-235 0.1 mg/kg s.c. every other day, max score 60): 11±3
- Joint histology parameters (cartilage degradation and erosion, angiogenesis, pannus, synovial hyperplasia and inflammation) ([1]; end of trial): significantly reduced all parameters
- Micro-CT imaging of hind limbs (bone erosion) ([1]; end of trial): better-preserved bones
- Reduction of mean clinical score compared to vehicle control ([1]; same regimens as mean score): ~60%
- Anti-ShK-235 IgG titers / immunogenicity [2]: very low titers; also recorded: not immunogenic
- Temperature stability [3]: up to 80 °C
